Measured values: patent publication US11992535B2, “Compounds and probes for imaging huntingtin protein” (CHDI Foundation, Inc., priority 2019, dated 2024)
pEC50: −log10 of the molar value. Read-outs that look alike come from different tables or passages of the source.

Molecular target: aggregated MBP-HTT(1-89)Q46-His(6×) (Exonl-Q46) protein (Q46 protein aggregates) (Homo sapiens (Human), UniProt P42858, INS38QQQQQQQQQQQQQQQQQQQQQQQQQ)
Assay: Q46 Radioligand Binding Assay
Conditions: read-out: Q46_RBA EC50_
Description: Q46 Radioligand Binding Assay
For radioligand binding assays (RBA) MBP-HTT(1-89)Q46-His(6×) (“Exonl-Q46”) protein was generated based on a previous publication (Scherzinger et al. Cell, Vol. 90, 549-558, Aug. 8, 1997). For experiments 30 μM MBP-Exonl-Q46 was incubated with 150 μg/mL thrombin in assay buffer (150 mM NaCl, 50 mM Tris pH 8.0) and 2 mM CaCl2 for 16 hours at 37° C. Aggregated Exonl-Q46 was pelleted by centrifugation for 5 minutes at 13,000 rpm in a bench top centrifuge and re-dissolved in the same volume of assay buffer. Test compounds were prepared by titration in DMSO at 11 concentrations from 63 μM to 2 nM. For the RBA, Q46 protein aggregates and test compounds were pre-incubated in assay buffer for 20 minutes at room temperature, in 100 μL/well in a 96-well plate (pp, round bottom). Then, ligand was added in 50 μL/well and incubated for 60 minutes at 37° C. Final assay concentrations were 1 μM to 30 μM test compound, 1 μM Exonl-Q46 protein (equivalent monomer concentration) and 0.3 nM ligand [^3H3-methyl]-5-((5-methoxypyridin-2-yl)methoxy)-2-(pyrazin-2-yl)benzo[d]oxazole. Samples were transferred onto GF/B filter plates and washed 2× with 200 μL PBS using a Filtermate Harvester. After drying filter plates for 1 hour at 55° C., the back of the plates were sealed with foil and 30 μL/well scintillation fluid (Packard MicroScint 40) added, incubated for 15 minutes in the dark and counted in a MicroBeta reader. For analysis, replicate data from independent assay plates were normalized towards 0% and 100% inhibition using control wells of vehicle (0% inhibition) and 1 μM unlabelled [^3H3-methyl]-5-((5-methoxypyridin-2-yl)methoxy)-2-(pyrazin-2-yl)benzo[d]oxazole (100% inhibition). IC50 values were determined with a sigmoidal inhibition model with four variables (top, bottom, slope, IC50) in a global fit using the normalized replicate data.

[1] = displacement of 0.3 nM [3H3-methyl]-5-((5-methoxypyridin-2-yl)methoxy)-2-(pyrazin-2-yl)benzo[d]oxazole from 1 μM Exonl-Q46 aggregates, method calls the values IC50
[2] = same radioligand displacement on Exonl-Q46 aggregates

Chain of aggregated MBP-HTT(1-89)Q46-His(6×) (Exonl-Q46) protein (Q46 protein aggregates) (P42858 other isoform, or with tags, fused parts or gaps, stated change not applied): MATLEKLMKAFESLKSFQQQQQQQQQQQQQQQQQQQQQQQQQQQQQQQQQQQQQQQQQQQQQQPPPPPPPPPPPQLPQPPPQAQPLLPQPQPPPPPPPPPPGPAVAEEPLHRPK

Row | SMILES | pEC50 [1] | pEC50 [2]
1 | COc1ccc(COc2ccc3c(c2)CN(C(=O)c2ccc(OC)nc2)CC3)nc1 [Example 1, 7-[(5-Methoxypyridin-2-yl)methoxy]-2-(6-methoxypyridine-3-carbonyl)-1,2,3,4-tetrahydroisoquinoline] | 8.91 | > 7.00
2 | COc1ccc(COc2ccc3c(c2)CN(C(=O)c2ccc(=O)n(C)n2)CC3)nc1 [Example 1.1] | 8.11 | > 7.00
3 | COc1ccc(COc2ccc3c(c2)CN(C(=O)c2cncc(OC)c2)CC3)nc1 [Example 1.5] | 8.25 | > 7.00
4 | COc1ccc2c(c1)CN(C(=O)c1ccc(OC)nc1)CC2 [Example 1.6] | 6.48 | 6.30 to 7.00
5 | COc1ccc(COc2ccc3c(c2)CN(C(=O)c2cnc(OC)cn2)CC3)nc1 [Example 1.8] | 8.92 | > 7.00
6 | COc1ccc(COc2ccc3c(c2)CN(C(=O)c2ccc(OC)cn2)CC3)nc1 [Example 1.10] | 8.30 | > 7.00
7 | COc1ccc(COc2ccc3c(c2)CN(C(=O)c2ccc(OC)nn2)CC3)nc1 [Example 1.11] | 8.28 | > 7.00
8 | COc1ccc(COc2cccc3c2CN(C(=O)c2ccc(OC)nc2)CC3)nc1 [Example 1.13] | 7.06 | > 7.00
9 | COc1ccc(COc2ccc3c(c2)CN(C(=O)C2CCN(C)CC2)CC3)nc1 [Example 1.15] | 6.02 | < 6.30
10 | COc1ccc(COc2ccc3c(c2)CN(C(=O)c2ccc(C(F)(F)F)nc2)CC3)nc1 [Example 1.17] | 8.60 | > 7.00
11 | COc1ccc(COc2ccc3c(c2)CN(C(=O)c2ccc(=O)n(CCCF)c2)CC3)nc1 [Example 1.19] | 8.26 | > 7.00
12 | COc1ccc(COc2ccc3c(c2)CN(C(=O)c2ccc(=O)n(CCF)n2)CC3)nc1 [Example 1.20] | 8.37 | > 7.00
13 | COc1ccc(COc2cnc3c(c2)CN(C(=O)c2ccnc(OC)c2)CC3)nc1 [Example 1.21] | 7.79 | > 7.00
14 | COc1ccc(COc2ccc3c(c2)CN(C(=O)c2cnc(OC)nc2)CC3)nc1 [Example 1.22] | 8.68 | > 7.00
15 | COc1ccc(COc2cnc3c(c2)CN(C(=O)c2ccnc(OCCF)c2)CC3)nc1 [Example 1.23] | 7.64 | > 7.00
16 | COc1ccc(C(=O)N2CCc3ccc(OCc4ccc(OC)cn4)cc3C2)cc1 [Example 1.26] | 8.75 | > 7.00

Row | SMILES | pEC50 [1] | pEC50 [2]
17 | COc1ccc(C(=O)N2CCc3ccc(OCc4cnn(C)c4)cc3C2)cn1 [Example 1.27] | 7.28 | > 7.00
18 | COc1ccc(COc2cnc3c(c2)CN(C(=O)c2cncc(OC)c2)CC3)nc1 [Example 1.28] | 7.53 | > 7.00
19 | COc1ccc(COc2cnc3c(c2)CN(C(=O)c2ccn(CCF)c(=O)c2)CC3)nc1 [Example 1.29] | 6.57 | 6.30 to 7.00
20 | COc1ccc(COc2ccc3c(c2)CNCC3)nc1 [Example 1.30, 7-[(5-Methoxypyridin-2-yl)methoxy]-1,2,3,4-tetrahydroisoquinolin-2-ium chloride] | 6.00 | < 6.30
21 | COc1ccc(COc2ccc3c(c2)CN(c2ncc(OC)cn2)CC3)nc1 [Example 3, 7-[(5-Methoxypyridin-2-yl)methoxy]-2-(5-methoxypyrimidin-2-yl)-1,2,3,4-tetrahydroisoquinoline] | 8.90 | > 7.00
22 | COc1ccc(COc2ccc3c(c2)CN(C(=O)N2CCN(C)CC2)CC3)nc1 [Example 4, 7-[(5-Methoxypyridin-2-yl)methoxy]-2-(4-methylpiperazine-1-carbonyl)-1,2,3,4-tetrahydroisoquinoline] | 7.14 | > 7.00
23 | COc1ccc(NC(=O)N2CCc3ccccc3C2)cn1 [Example 4.1] | 6.00 | < 6.30
24 | COc1ccc(COc2ccc3c(c2)CN(C(=O)Nc2ccc(OC)nc2)CC3)nc1 [Example 4.2] | 8.16 | > 7.00
25 | COc1ccc(COc2ccc3c(c2)CN(C(=O)N2CCc4cc(OC)ncc4C2)CC3)nc1 [Example 4.3] | 8.44 | > 7.00
26 | COc1ccc(COc2ccc3c(c2)CN(C(=O)N2CC4(COC4)C2)CC3)nc1 [Example 4.4] | 6.00 | < 6.30
27 | COc1ccc(COc2ccc3c(c2)CN(C(=O)OCc2ccc(OC)nc2)CC3)nc1 [Example 5.1] | 8.78 | > 7.00
28 | COc1ccc(COc2ccc3c(c2)CN(c2cncc(OC)c2)CC3)nc1 [Example 6.1] | 8.58 | > 7.00
29 | COc1ccc(COc2cnc3c(c2)CN(c2cncc(OC)c2)CC3)nc1 [Example 6.3] | 8.10 | > 7.00
30 | COc1ccc(COc2ccc3c(c2)CN(c2ccc(OC)nc2)CC3)nc1 [Example 6] | 8.65 | > 7.00
31 | COc1ccc(COc2ccc3c(c2)CN(Cc2ccc(OC)nc2)CC3)nc1 [Example 7] | 6.86 | 6.30 to 7.00

Further molecules by rising pEC50 [1], results first:

Row | pEC50 [1] | pEC50 [2] | SMILES
32 | 6.00 | < 6.30 | COc1ccc(COC(=O)N2CCc3ccccc3C2)cn1 [Example 5, (6-Methoxypyridin-3-yl)methyl 1,2,3,4-tetrahydroisoquinoline-2-carboxylate]
33 | 7.01 | > 7.00 | COc1ccc(COc2ccc3c(c2)C(=O)N(Cc2ccc(OC)nc2)CC3)nc1 [Example 2, 7-[(5-Methoxypyridin-2-yl)methoxy]-2-[(6-methoxypyridin-3-yl)methyl]-1,2,3,4-tetrahydroisoquinolin-1-one]
34 | 7.02 | > 7.00 | COc1ccc(COc2ccc3c(c2)CN(C(C)=O)CC3)nc1 [Example 1.7]
35 | 7.19 | > 7.00 | COc1ccc(COc2cnc3c(c2)CN(C(=O)c2cncc(OCCF)c2)CC3)nc1 [Example 1.18]
36 | 7.31 | > 7.00 | COc1ccc(COc2ccc3c(c2)CCN(C(=O)c2ccc(OC)nn2)C3)nc1 [Example 1.2]
37 | 7.33 | > 7.00 | COc1ccc(COc2ccc3c(c2)CCN(C(=O)c2ccc(=O)n(C)n2)C3)nc1 [Example 1.3]
38 | 7.47 | > 7.00 | COc1ccc(COc2cccc3c2CCN(C(=O)c2ccc(OC)nc2)C3)nc1 [Example 1.12]
39 | 7.56 | > 7.00 | COc1ccc(COc2ccc3c(c2)CN(C(=O)c2cccnc2)CC3)nc1 [Example 1.9]
40 | 8.07 | > 7.00 | COc1ccc(COc2ccc3c(c2)CCN(C(=O)c2ccc(OC)nc2)C3)nc1 [Example 1.4]
41 | 8.10 | > 7.00 | COc1ccc(COc2ccc3c(c2)CN(C(=O)c2cnn(C)c2)CC3)nc1 [Example 1.24]
42 | 8.24 | > 7.00 | COc1ccc(COc2cnc3c(c2)CN(C(=O)c2ccc(OC)nc2)CC3)nc1 [Example 1.16]
43 | 8.54 | > 7.00 | COc1ccc(COc2ccc3c(c2)CN(C(=O)c2ccc(C)nc2)CC3)nc1 [Example 1.25]
44 | 8.71 | > 7.00 | COc1ccc(COc2cnc3c(c2)CN(c2ncc(OC)cn2)CC3)nc1 [Example 6.2]
45 | 8.74 | > 7.00 | COc1ccc(COc2ccc3c(c2)CN(C(=O)c2ccc(N(C)C)nc2)CC3)nc1 [Example 1.14]
